PubChem BioAssay AID618 (Sanford-Burnham Center for Chemical Genomics, 2007)
pEC50: −log10 of the molar value.

Test system: MT1-MMP promoter luciferase reporter cells, luminescence
Assay: MT1-MMP gene expression reporter suppression – cell-based, luciferase reporter, luminescence (AID 618);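 also: actives suppress MT1-MMP promoter-driven transcription so potencies describe inhibitors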

SMILES: O=C(c1ccc(Cl)cc1)N1CCCCC(Sc2nnc(-c3ccc4c(c3)OCO4)o2)C1=O (centres undefined)
- pEC50: 6.85

SMILES: Cc1ccc(C(=O)Nc2nc3c(s2)CCCC3)o1
- pEC50: 5.22

SMILES: Cc1cccc(-n2ncc3c(N4CCCC4)ncnc32)c1
- pEC50: 5.12

SMILES: c1ccc(-c2nc3cc4ccccc4cc3[nH]2)nc1
- pEC50: 6.10

SMILES: COc1ccc(C(=O)/C=C/Nc2cccc(O)c2)cc1
- pEC50: 5.91

SMILES: Cc1ccc(NC2=Nc3ccccc3CC2)cc1
- pEC50: 5.57

SMILES: CC(C)CNC(=O)c1coc(=O)c(Br)c1
- pEC50: 4.73

SMILES: CN(C)CCCNS(=O)(=O)c1ccc(N2CCC(c3ccc(Cl)cc3)=N2)cc1
- pEC50: 4.92

SMILES: CC(C)C(=O)Nc1ccc(NC(=O)c2ccccn2)cn1
- pEC50: 5.20
